ChEMBL document CHEMBL1150571, “Hipposulfates A and B, new sesterterpene sulfates from an Okinawan sponge, Hippospongia cf. metachromia” (J Nat Prod, 2001)

Key:
Format in all cases: functional, cell-based
P388 = test: Cytotoxicity against mouse P388 cells
A549 = test: Cytotoxicity against human A549 cells
HT-29 = test: Cytotoxicity against human HT-29 cells
SK-MEL-28 = test: Cytotoxicity against human SK-MEL-28 cells

Measured: IC50

CC1=CC[C@H]2C(C)(C)CCC[C@]2(C)[C@H]1CC/C(=C\OS(=O)(=O)[O-])CCC/C(C)=C/Cc1cc(O)ccc1O.[Na+] [HIPPOSULFATE A]
2 µg/mL: all assays above
